Assay results taken from patent US20260324636A1, “COMPOSITION FOR PROVIDING PLANT WITH STRESS RESISTANCE” (KIRIN HOLDINGS KABUSHIKI KAISHA, priority 2022, published 2026).

What was measured:
[1] = system: H1HSFA2; experiment: H1HSFA2 gene expression by real-time PCR, Example 7; format: in vivo, hop; conditions: 1 mM in medium, 20° C. for 2 hours, leaves; read-out: H1HSFA2 expression level, increase vs control
From the text: In order to design primers for the target genes necessary for gene expression analysis by real-time PCR, homologs of Arabidopsis thaliana high-temperature-responsive genes in hop were searched for. The amino acid sequences of Arabidopsis thaliana HSFA2 (AGI code: AT2G26150) and HSP17.6C (AGI code: AT1G53540) were obtained from TAIR (https://www.arabidopsis.org/), and the nucleotide sequences of the gene homologs were obtained using Hopbase (https://hopbase.cgrb.oregonstate.edu/). […] As the reference gene, the nucleotide sequence of the homolog of Arabidopsis thaliana EF1α (AGI code: AT1G18070) was obtained. The hop homolog genes were designated as H1HSFA2, H1HSP17.6C, and HIEF1α, respectively.
(§1) The materials as used in Example 4 were used.
The methods as employed in Example 4 were employed.
(§2) The leaves in the first and the second nodes from the apical buds of the tissue-cultured seedlings were sampled 1.5 months after the initiation of subculture and inoculated into a liquid medium consisting of a ½ Murashige and Skoog Plant Salt Mixture and 2 (w/v) % glucose. Specifically, a liquid medium was dispensed at 5 ml/well to a 6-well microplate (IWAKI), and 5 hop leaves were mounted thereon. […]
Thereafter, the relative expression level of the target gene upon N-acetylglutamic acid treatment was calculated by the ΔΔCt method.

[2] = system: H1ZAT10; experiment: H1ZAT10 gene expression by real-time PCR, Example 13; format: in vivo, hop; conditions: 1 mM in medium, 20° C. for 2 hours, leaves; read-out: H1ZAT10 expression level, increase vs control
From the text: as §1
The medium as used in Example 4 were used.
In order to design primers for the target genes necessary for gene expression analysis by real-time PCR, homologs of Arabidopsis thaliana oxidation stress-responsive genes in hop were searched for. The amino acid sequences of Arabidopsis thaliana ZAT10 (AGI code: AT1G27730) and ZAT12 (AGI code: AT5G59820) were obtained from TAIR (https://www.arabidopsis.org/), and the nucleotide sequences of the gene homologs were obtained using Hopbase (http:/hopbase.cgrb.oregonstate.edu/). […] As the reference gene, the nucleotide sequence of the homolog of Arabidopsis thaliana EF1α (AGI code: AT1G18070) was obtained. The hop homolog genes were designated as H1ZAT10, H1ZAT12, and HIEF1α, respectively.
as §2, with “microplate,” for “microplate (IWAKI),”
Thereafter, the relative expression levels of the target genes upon N-acetylglutamic acid treatment were calculated by the ΔΔCt method.

[3] = system: HSP17.6C; experiment: HSP17.6C gene expression by real-time PCR, Example 5; format: in vivo; conditions: Arabidopsis thaliana; 0.1 mM in medium, 6 hours after application, 22° C.; read-out: HSP17.6C expression level, increase vs control group
Procedure: The materials as used in Example 1 were used.
The method as employed in Example 1 was employed.
N-acetylglutamic acid was applied to Arabidopsis thaliana 7 days after inoculation to the final concentration of 0.1 mM in the medium, followed by incubation for 2 hours or 6 hours. The incubator was maintained at a temperature of 22° C. for a daily cycle of 16 hours light and 8 hours darkness. After incubation, the samples were frozen with liquid nitrogen, and RNA was extracted using the RNeasy Plant Mini Kit (Thermo Fischer Scientific).
cDNA that would be necessary as a real-time PCR template was synthesized from the RNA obtained. 500 ng total RNA was used for each sample, and cDNA was synthesized using the Verso cDNA Synthesis Kit (Thermo Fischer Scientific). The synthesized cDNA was diluted to 5-fold with sterile distilled water and subjected to real-time PCR. For real-time PCR, a reaction solution containing HSFA2 (AGI code: AT2G26150) and HSP17.6C (AGI code: AT1G53540) as the target genes, ACTIN2 (AGI code: AT3G18780) as the reference gene, and TB Green Ex Taq II (TaKaRa) was prepared. PCR was performed with the use of the LightCycler® 480 System (Roche) with the number of amplification cycles of 50. […]
Thereafter, the relative expression level of the target genes upon N-acetylglutamic acid treatment were calculated by the ΔΔCt method using the Cp values obtained by real-time PCR.

CC(=O)N[C@@H](CCC(=O)O)C(=O)O [N-acetylglutamic acid]
fold induction at 1000 µM [1]: 1.7
fold induction at 1000 µM [2]: 1.7
fold induction at 100 µM [3]: 1.2
